Test results published in ChEMBL document CHEMBL1150689, “New dihydroalkylhexenones from Lannea edulis” (J Nat Prod, 2003).
The source made the active and inactive calls. The rule behind the calls is not given here.

Assay: DPPH radical scavenging activity at 10 ug after 30 mins by TLC
Format: functional

| Compound | Activity |
| --- | --- |
| CC/C=C/CCCCCCCCCCCCCCC[C@@]1(O)CC(=O)C=C[C@@H]1O | inactive |
| CC/C=C/CCCCCCCCCCCCCCC[C@]1(O)CC(=O)C=C[C@@H]1O | inactive |
| CC/C=C/CCCCCCCCCCCCC[C@@]1(O)CC(=O)C=C[C@@H]1O | inactive |
| CC/C=C/CCCCCCCCCCCCCc1cccc(O)c1 | Active |
